{"source": "patent US8809377B2", "about": "“Deubiquitinase inhibitors and methods for use of the same” (The Regents of the University of Michigan, priority 2010, dated 2014)", "key": {"[1]": {"test_system": "tumor cell", "experiment": "Tumor cell proliferation", "assay_type": "cell-based", "description": "WP1051 and WP1052 represent two earlier chemical analogues of WP1130. […] This was unexpected as WP1051 and WP1052 are chemically identical but structurally distinct isomers. Since apoptosis/anti-proliferative properties of WP1130 are related to its ability to suppress cellular DUBs and induce accumulation of ubiquitinated proteins, WP1051 and 1052 were investigated whether they can affect protein ubiquitination and DUB activity."}, "[2]": {"test_system": "ubiquitinated proteins", "experiment": "Ubiquitin immunoblot of cell extracts", "assay_type": "cell-based", "conditions": "for accumulation of ubiquitinated proteins: Z138 cells; for ubiquitinated protein levels: CML cells", "procedure": "(§1) Total cell lysates were prepared by boiling and sonicating cell pellets in 1× Laemmli reducing sample buffer. To prepare detergent soluble and insoluble fractions, cells were lysed in cold isotonic lysis buffer [10 mM Tris-HCl (pH 7.5), 0.5% Triton X-100, 150 mM NaCl along with Mini-Complete and PhosSTOP] for 15 min on ice and centrifuged 10 min at 20,000 RCF. The clarified supernatant was used as the detergent soluble cell fraction. The residual pellet was washed and extracted in Laemmli reducing sample buffer and briefly sonicated to derive the detergent insoluble fraction. Equal volumes of cellular lysate or equal protein amounts were electrophoresed on SDS-PAGE gels and transferred to nitrocellulose membranes (Whatmann, Dassel, Germany). Proteins were detected by immunoblotting.\nWhole cell lysates were prepared by boiling and sonicating the cell pellets in 1× Laemmli reducing sample buffer. To prepare detergent soluble and insoluble fractions, cells were lysed in cold isotonic lysis buffer [10 mM Tris-HCl (pH 7.5), 0.5% Triton X-100, 150 mM NaCl along with Mini-Complete and PhosSTOP] for 15 min on ice and centrifuged 10 minutes at 20,000 RCF. The clarified supernatant was used as a source of the detergent soluble cell fraction. The detergent insoluble fraction was extracted by the sonication of residual pellet in equal volumes of boiling 1× Laemmli reducing sample buffer. Equal volumes of cellular lysate or equal protein amounts were electrophoresed on SDS-PAGE gels."}, "[3]": {"test_system": "Murine norovirus (MNV)", "experiment": "Murine norovirus plaque assay", "assay_type": "cell-based", "conditions": "MNV-1 (MOI 5), RAW 264.7, 20 μM, 8 and 12 hours postinfection", "procedure": "Viral titers were determined by plaque assay.\nCells were treated with IFN-β as a positive anti-viral control."}, "[4]": {"test_system": "DUB activity", "experiment": "Western / HA-UbVS labeling of DUB activity in intact cells", "assay_type": "cell-based", "conditions": "for DUBs labeling (HA-UbVS): Z138 treated cells, AG490 250 μM", "procedure": "(§2) To assay for changes in activity of cellular deubiquitinase enzymes, leukemic cells were lysed in DUB buffer (50 mM Tris pH 7.4, 5 mM MgCl2, 150 mM NaCl) for 10 min at 4° C. The lysates were centrifuged at 20,000 RCF for 10 min and the supernatant was used for DUB labeling. Equal amounts of lysate were incubated with 500 ng of HA-UbVs for 1 hr at room temperature, followed by boiling in reducing sample buffer and resolving by SDS-PAGE. HA immunoblotting was used to detect DUB labeling.\nas §2, with “Z138 and HEK293” for “leukemic”, “RFC” for “RCF”, “SDS-PAGE. After protein transfer to nitrocellulose membranes,” for “SDS-PAGE.”\n(§3) Cancer Res, 2010. 70(22): p. […] Blood, 2011. 117(11): p. […] Biochem Pharmacol, 2011. 82(4): p. […] Blood, 2007. 109(8): p. 3470-8."}, "[5]": {"test_system": "WDT2", "experiment": "MTT cell growth and survival", "assay_type": "cell-based", "conditions": "WDT2 cell line", "description": "as §3"}, "[6]": {"target": "ubiquitin iso-peptidase activity", "conditions": "read-out: IC50, ubiquitin iso-peptidase activity in cells; cited from earlier work"}, "[7]": {"test_system": "K562", "experiment": "MTT cell growth and survival", "assay_type": "cell-based", "conditions": "K562 cell line", "description": "as §3"}, "[8]": {"test_system": "pStat5", "experiment": "Western blot of pStat5", "assay_type": "cell-based", "conditions": "SET, HEL cell lines", "procedure": "as §1, §3"}, "[9]": {"test_system": "Bcr-Abl", "experiment": "Bcr-Abl immunoblot of cell fractions", "assay_type": "cell-based", "conditions": "CML cells; WP1130 5 μM, bortezomib 50 nM"}, "[10]": {"test_system": "cellular DUB activity", "experiment": "DUB activity of lysates from treated cells (Ub-AMC, Ub chain disassembly)", "assay_type": "cell-based", "conditions": "Z138 cells, 5 μM WP1130 or 50 nM bortezomib, by 4 hours", "procedure": "Cells were lysed in ice cold DUB buffer containing 50 mM Tris-HCl, pH 7.5, 0.5% NP-40, 5 mM MgCl2, 150 mM NaCl and 1 mM phenylmethylsulfonylfluoride. Briefly, 5 μg of clarified lysate from untreated or treated cells was incubated with 500 nM Ub-AMC in a 100 μL reaction volume at 37° C. and the release of AMC fluorescence was recorded at ex/em 380/480 using a spectrofluorometer. USP9x was immunoprecipitated from 500 μg of cell lysate and incubated in DUB buffer containing NEM, WP1130 or DMSO in a 100 μL reaction volume for 30 min. The reaction was initiated by the addition of 500 nM Ub-AMC and the release of AMC-fluorescence was recorded.\nIn vitro disassembly of purified polyubiquitin chains (K-48/K-63 linked) was performed as previously described. Five μg of lysate from untreated or WP1130 treated cells were prepared in DUB buffer and incubated with K48- or K-63 linked chains (1 μg) for 10 min at 37° C. The extent of chain disassembly was assessed by ubiquitin immunoblotting.\nInhibition of cellular deubiquitinases could lead to an increase in high molecular weight ubiquitinated proteins in the absence of proteasome inhibition. […] To directly assess the impact of WP1130 on DUB activity in treated cells, cell lysates from control and treated cells were incubated with ubiquitin-AMC and fluorescence generated as a consequence of substrate cleavage was measured as an indicator of DUB activity.\nThe effect of WP1130 treatment on in vitro deubiquitination/disassembly of purified K48-linked or K63-linked polyubiquitin chains was evaluated. Lysates from WP1130 treated (2 hr) or untreated cells were incubated with 1 μg of unanchored polyubiquitin chains for 5, 10 and 15 min at 37° C."}, "[11]": {"test_system": "USP9X", "experiment": "Western / HA-UbVS labeling of USP9X in intact cells or lysates", "assay_type": "cell-based", "conditions": "Z138 treated cells"}, "[12]": {"test_system": "Hsp70", "experiment": "Hsp70 immunoblot", "assay_type": "cell-based", "conditions": "CML cells"}, "[13]": {"test_system": "BV-173 and BV-173R", "experiment": "Anti-proliferative effects in CML lines", "conditions": "BV-173 (WT Bcr-Abl) and BV-173R (T315I)"}, "[14]": {"target": "T1, 20S proteasome (Homo sapiens, UniProt P28074)", "T1 construct": "endogenous in cells; host or cells: K562 and other CML lines, Z138", "T1 sequence (P28074 60-263)": "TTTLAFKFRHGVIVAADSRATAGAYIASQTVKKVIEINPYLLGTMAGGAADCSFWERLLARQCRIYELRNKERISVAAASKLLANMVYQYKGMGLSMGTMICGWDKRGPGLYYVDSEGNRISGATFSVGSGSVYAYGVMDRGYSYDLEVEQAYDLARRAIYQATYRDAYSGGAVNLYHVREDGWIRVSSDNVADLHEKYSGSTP", "experiment": "Proteasome activity assay in treated cells (Suc-LLVY-AMC)", "assay_type": "cell-based", "conditions": "5 μM, 2 hr", "procedure": "(§4) Fluorogenic substrate Suc-LLVY-AMC was used to assay for the chymotryptic-like activity of the 20S proteasome. To assay for in vivo proteasome inhibition cells were treated with WP1130 (5 μM) or MG132 (5 μM) for 2 hours and lysed in ice-cold lysis buffer (50 mM HEPES, pH 7.5, 5 mM EDTA, 150 mM NaCl, 1% Triton X-100). Lysates were clarified by centrifugation at 20,000 RCF for 10 min and equal amounts of protein from each sample were incubated at 37° C. with 100 μM fluorogenic substrate. To assay for direct inhibition of the 20S proteasome in vitro, purified 20S human proteasome (200 ng) was incubated with WP1130 (5 μM), MG132 (5 μM) or Lactacystin (5 μM) for 30 min at 37° C. before addition of the substrates. Fluorescence intensity was measured using a spectrophotometer at excitation 360 nm & emission 460 nm. Assays were performed in triplicate, and statistical significance was determined with a paired Student's t test."}, "[15]": {"target": "T2, 20S human proteasome (Homo sapiens, UniProt P28074)", "T2 construct": "purchased BostonBiochem", "experiment": "Proteasome activity assay on purified 20S proteasome", "assay_type": "biochemical", "conditions": "5 μM", "procedure": "as §4"}}, "note": "Residues, ends and D or L forms follow the SMILES beside them. *: point of attachment. Cbz = O=C(OCc1ccccc1)*"}
{"smiles": "C[C@H](NC(=O)/C(C#N)=C/c1ccc(O)c([N+](=O)[O-])c1)c1ccccc1", "note": "[WP1052]", "values": [{"measurement": "suppression of tumor cell proliferation", "setting": "[1]", "result": "failed to show any anti-tumor properties"}, {"measurement": "accumulation of ubiquitinated proteins", "setting": "[2]", "result": "failed to show any affect"}, {"measurement": "viral titers by plaque assay", "setting": "[3]", "result": "not"}, {"measurement": "DUBs labeling (HA-UbVS)", "setting": "[4]", "result": "no DUB inhibition"}]}
{"smiles": "CCCC(NC(=O)/C(C#N)=C/c1cccc(Br)n1)c1ccc(O)cc1", "note": "(stereo not shown) [Compound 7, (E)-3-(6-Bromopyridin-2-yl)-2-cyano-N-(1-(4-hydroxyphenyl)butyl)acrylamide]", "values": [{"measurement": "MTT Activity relative to WP1130", "setting": "[5]", "result": "More sensitive"}]}
{"smiles": "O=C(C=Cc1ccccc1)C=Cc1ccccc1", "note": "[dibenzylideneacetone]", "values": [{"measurement": "IC50", "setting": "[6]", "result": "20 to 40", "unit": "µM"}]}
{"smiles": "CCC[C@H](NC(=O)C(C#N)C(SCC(O)CO)c1cccc(Br)n1)c1ccccc1", "note": "(stereo partly drawn) [Compound 20, 3-(6-Bromopyridin-2-yl)-2-cyano-3-((2,3-dihydroxypropyl)thio)-N—((S)-1-phenylbutyl)propanamide]", "values": [{"measurement": "MTT Activity relative to WP1130", "setting": "[7]", "result": "More sensitive"}, {"measurement": "Western Targets: pStat5", "setting": "[8]", "result": "pStat5: down-regulated; DUB"}, {"measurement": "Western Targets: DUB activity", "setting": "[4]; SET, HEL cell lines", "result": "no effect"}]}
{"smiles": "CC(C)C[C@H](NC(=O)[C@H](Cc1ccccc1)NC(=O)c1cnccn1)B(O)O", "note": "[Bortezomib, reference compound]", "values": [{"measurement": "Bcr-Abl trafficking from detergent soluble to insoluble cell fraction", "setting": "[9]", "result": "no effect"}, {"measurement": "reduction of DUB activity (ubiquitin-AMC)", "setting": "[10]", "result": "no change"}, {"measurement": "ubiquitinated protein levels", "setting": "[2]", "result": "elevated"}]}
{"smiles": "C[C@H](NC(=O)/C(C#N)=C/c1ccc([N+](=O)[O-])c(O)c1)c1ccccc1", "note": "[WP1051]", "values": [{"measurement": "suppression of tumor cell proliferation", "setting": "[1]", "result": "effective in suppressing tumor cell proliferation"}, {"measurement": "HA-UbVS labeling of USP9x", "setting": "[11]", "result": "could suppress the activity"}, {"measurement": "accumulation of ubiquitinated proteins", "setting": "[2]", "result": "induce accumulation of ubiquitinated proteins in a dose-dependent fashion"}, {"measurement": "viral titers by plaque assay", "setting": "[3]", "result": "reduced viral titers"}]}
{"smiles": "CCCCC[C@H](O)C/C=C1/C(=O)C=C[C@@H]1C/C=C\\CCCC(=O)O", "note": "[D12-prostaglandin J2]", "values": [{"measurement": "IC50", "setting": "[6]", "result": "~30", "unit": "µM"}]}
{"smiles": "COc1cc(/C=C/C(=O)CC(=O)/C=C/c2ccc(O)c(OC)c2)ccc1O", "note": "[curcumin]", "values": [{"measurement": "IC50", "setting": "[6]", "result": "80 to 100", "unit": "µM"}]}
{"smiles": "CCC(NC(=O)/C(C#N)=C/c1cccc(Br)n1)c1ccc(OCCOC)cc1", "note": "(stereo not shown) [Compound 17, (E)-3-(6-Bromopyridin-2-yl)-2-cyano-N-(1-(4-(2-methoxyethoxy)phenyl)propyl)-acrylamide]", "values": [{"measurement": "MTT Activity relative to WP1130", "setting": "[7]", "result": "Less sensitive"}]}
{"smiles": "C=CCNC1=C2C[C@@H](C)C[C@H](OC)[C@H](O)[C@@H](C)/C=C(\\C)[C@H](OC(N)=O)[C@@H](OC)/C=C\\C=C(/C)C(=O)NC(=CC1=O)C2=O", "note": "[Compound 17-AAG, 17-Allylamino-17-demethoxygeldanamycin, reference compound]", "values": [{"measurement": "ubiquitinated protein levels", "setting": "[2]", "result": "no effect"}, {"measurement": "Hsp70 protein levels", "setting": "[12]", "result": "induction of Hsp70"}, {"measurement": "anti-proliferative effects", "setting": "[13]", "result": "anti-proliferative effects"}]}
{"smiles": "CCCC(NC(=O)/C(C#N)=C/c1cccc(Br)n1)c1ccc(OCOC)cc1", "note": "(stereo not shown) [Compound 6, (E)-3-(6-Bromopyridin-2-yl)-2-cyano-N-(1-(4-(methoxymethoxy)phenyl)butyl)acrylamide]", "values": [{"measurement": "MTT Activity relative to WP1130", "setting": "[5]", "result": "More sensitive"}]}
{"smiles": "C=C1C(=O)C2=CC1CCC(=O)C1(C)CCC(OC(C)=O)C(C)(C)C1CC2O", "note": "(stereo not shown) [shikoccin]", "values": [{"measurement": "IC50", "setting": "[6]", "result": "~15", "unit": "µM"}]}
{"smiles": "CC(C)C[C@@H](C=O)NC(=O)[C@H](CC(C)C)NC(=O)[C@H](CC(C)C)NC(=O)OCc1ccccc1", "note": "[MG-132, reference compound] (Cbz-Leu-Leu-Leu-aldehyde)", "values": [{"measurement": "20S proteasome chymotryptic-like activity in intact cells (in vivo)", "setting": "[14]", "result": "substantially inhibited"}, {"measurement": "purified 20S proteasome activity (in vitro)", "setting": "[15]", "result": "substantially inhibited"}]}
{"smiles": "N#C/C(=C/c1ccc(O)c(O)c1)C(=O)NCc1ccccc1", "note": "[AG490, reference compound]", "values": [{"measurement": "accumulation of ubiquitinated proteins", "setting": "[2]", "result": "did not induce a change"}, {"measurement": "DUBs labeling (HA-UbVS)", "setting": "[4]", "result": "no change"}]}
